We go through 4 compounds from ChEMBL document CHEMBL5442175, “EUbOPEN Chemogenomics Library - PDSP Secondary Binding” (2024).

Assay [1] deals with Beta-3 adrenergic receptor (Homo sapiens, UniProt P13945). The experiment in a line: PDSP Secondary Binding target: ADRB3 - Compounds are tested at 10 uM concentration, plate are incubated at room temperature in the dark for 90 minutes. Reaction are stopped by vacuum filtration onto 0.3% polyethyleneimine soaked filter mats using Filtermate harvester. Scintillation cocktail is then melted onto microwave-dried filters on a hot plate and the radio activity is counted in Microbia counter.
Sequence of Beta-3 adrenergic receptor (P13945 whole entry): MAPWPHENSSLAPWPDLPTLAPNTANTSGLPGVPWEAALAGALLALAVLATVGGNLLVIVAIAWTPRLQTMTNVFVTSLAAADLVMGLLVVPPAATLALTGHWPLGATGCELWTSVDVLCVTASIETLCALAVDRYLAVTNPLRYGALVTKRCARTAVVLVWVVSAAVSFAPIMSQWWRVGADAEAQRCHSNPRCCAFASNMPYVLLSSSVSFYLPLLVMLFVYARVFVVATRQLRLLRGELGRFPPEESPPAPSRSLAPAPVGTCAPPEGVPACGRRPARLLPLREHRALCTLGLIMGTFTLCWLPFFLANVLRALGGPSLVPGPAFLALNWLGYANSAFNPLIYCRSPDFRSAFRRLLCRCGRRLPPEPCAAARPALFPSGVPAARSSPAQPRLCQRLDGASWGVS

The target in assay [2] is Translocator protein (Homo sapiens, UniProt P30536). The experiment in a line: PDSP Secondary Binding target: TSPO - Compounds are tested at 10 uM concentration, plate are incubated at room temperature in the dark for 90 minutes. Reaction are stopped by vacuum filtration onto 0.3% polyethyleneimine soaked filter mats using Filtermate harvester. Scintillation cocktail is then melted onto microwave-dried filters on a hot plate and the radio activity is counted in Microbia counter.

The target in assay [3] is Beta-2 adrenergic receptor (Homo sapiens, UniProt P07550). The assay can be described thus: PDSP Secondary Binding target: ADRB2 - Compounds are tested at 10 uM concentration, plate are incubated at room temperature in the dark for 90 minutes. Reaction are stopped by vacuum filtration onto 0.3% polyethyleneimine soaked filter mats using Filtermate harvester. Scintillation cocktail is then melted onto microwave-dried filters on a hot plate and the radio activity is counted in Microbia counter.
Sequence of Beta-2 adrenergic receptor (P07550 whole entry): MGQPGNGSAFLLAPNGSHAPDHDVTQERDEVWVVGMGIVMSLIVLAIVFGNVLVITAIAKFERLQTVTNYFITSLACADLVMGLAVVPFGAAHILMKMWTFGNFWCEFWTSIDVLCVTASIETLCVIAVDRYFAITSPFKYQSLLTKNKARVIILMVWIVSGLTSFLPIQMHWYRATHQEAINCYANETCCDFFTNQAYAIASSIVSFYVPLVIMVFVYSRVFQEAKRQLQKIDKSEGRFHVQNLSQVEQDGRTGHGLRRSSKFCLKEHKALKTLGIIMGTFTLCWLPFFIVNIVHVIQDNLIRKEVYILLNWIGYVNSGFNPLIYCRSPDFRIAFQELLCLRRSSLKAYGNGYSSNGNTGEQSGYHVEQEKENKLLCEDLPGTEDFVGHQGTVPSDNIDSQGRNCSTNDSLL

In assay [4] the target is Sigma intracellular receptor 2 (Homo sapiens, UniProt Q5BJF2). The experiment in a line: PDSP Secondary Binding target: TMEM97 - Compounds are tested at 10 uM concentration, plate are incubated at room temperature in the dark for 90 minutes. Reaction are stopped by vacuum filtration onto 0.3% polyethyleneimine soaked filter mats using Filtermate harvester. Scintillation cocktail is then melted onto microwave-dried filters on a hot plate and the radio activity is counted in Microbia counter.
Sequence of Sigma intracellular receptor 2 (Q5BJF2 whole entry): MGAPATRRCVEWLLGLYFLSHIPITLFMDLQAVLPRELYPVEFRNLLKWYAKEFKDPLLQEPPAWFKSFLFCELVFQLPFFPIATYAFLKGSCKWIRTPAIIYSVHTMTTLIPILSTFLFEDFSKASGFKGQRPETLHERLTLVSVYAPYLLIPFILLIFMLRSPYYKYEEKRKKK

Assay [5] concerns the target D(3) dopamine receptor (Homo sapiens, UniProt P35462). The assay can be described thus: PDSP Secondary Binding target: DRD3 - Compounds are tested at 10 uM concentration, plate are incubated at room temperature in the dark for 90 minutes. Reaction are stopped by vacuum filtration onto 0.3% polyethyleneimine soaked filter mats using Filtermate harvester. Scintillation cocktail is then melted onto microwave-dried filters on a hot plate and the radio activity is counted in Microbia counter.

For assay [6], the target named is 5-hydroxytryptamine receptor 2B (Homo sapiens, UniProt P41595). The experiment in a line: PDSP Secondary Binding target: HTR2B - Compounds are tested at 10 uM concentration, plate are incubated at room temperature in the dark for 90 minutes. Reaction are stopped by vacuum filtration onto 0.3% polyethyleneimine soaked filter mats using Filtermate harvester. Scintillation cocktail is then melted onto microwave-dried filters on a hot plate and the radio activity is counted in Microbia counter.
Sequence of 5-hydroxytryptamine receptor 2B (P41595 whole entry): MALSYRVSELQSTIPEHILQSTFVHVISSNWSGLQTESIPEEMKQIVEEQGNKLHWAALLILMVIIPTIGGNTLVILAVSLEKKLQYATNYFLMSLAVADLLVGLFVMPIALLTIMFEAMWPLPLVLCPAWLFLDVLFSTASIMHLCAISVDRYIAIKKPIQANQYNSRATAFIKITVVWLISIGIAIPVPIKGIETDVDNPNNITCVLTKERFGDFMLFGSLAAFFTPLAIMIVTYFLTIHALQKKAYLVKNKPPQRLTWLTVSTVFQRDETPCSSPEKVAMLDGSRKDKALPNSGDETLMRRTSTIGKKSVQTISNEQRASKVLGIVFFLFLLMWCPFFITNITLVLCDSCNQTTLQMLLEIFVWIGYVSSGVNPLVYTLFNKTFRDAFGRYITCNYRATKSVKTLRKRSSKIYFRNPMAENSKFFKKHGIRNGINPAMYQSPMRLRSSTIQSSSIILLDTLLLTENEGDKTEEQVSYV

Assay [7] has as its target 5-hydroxytryptamine receptor 1D (Homo sapiens, UniProt P28221). The assay can be described thus: PDSP Secondary Binding target: HTR1D - Compounds are tested at 10 uM concentration, plate are incubated at room temperature in the dark for 90 minutes. Reaction are stopped by vacuum filtration onto 0.3% polyethyleneimine soaked filter mats using Filtermate harvester. Scintillation cocktail is then melted onto microwave-dried filters on a hot plate and the radio activity is counted in Microbia counter.

The target of assay [8] is 5-hydroxytryptamine receptor 5A (Homo sapiens, UniProt P47898). The assay can be described thus: PDSP Secondary Binding target: HTR5A - Compounds are tested at 10 uM concentration, plate are incubated at room temperature in the dark for 90 minutes. Reaction are stopped by vacuum filtration onto 0.3% polyethyleneimine soaked filter mats using Filtermate harvester. Scintillation cocktail is then melted onto microwave-dried filters on a hot plate and the radio activity is counted in Microbia counter.
Sequence of 5-hydroxytryptamine receptor 5A (P47898 whole entry): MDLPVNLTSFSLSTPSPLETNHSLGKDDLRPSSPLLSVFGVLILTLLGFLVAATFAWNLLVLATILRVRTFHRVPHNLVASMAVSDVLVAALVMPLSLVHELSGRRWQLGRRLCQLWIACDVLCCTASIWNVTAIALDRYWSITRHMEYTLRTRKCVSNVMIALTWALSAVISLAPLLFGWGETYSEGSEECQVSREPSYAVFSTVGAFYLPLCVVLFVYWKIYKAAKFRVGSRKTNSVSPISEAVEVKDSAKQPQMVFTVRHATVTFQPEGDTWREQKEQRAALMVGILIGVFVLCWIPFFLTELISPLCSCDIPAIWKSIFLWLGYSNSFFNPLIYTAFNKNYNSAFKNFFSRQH

Assay [9] has as its target 5-hydroxytryptamine receptor 1E (Homo sapiens, UniProt P28566). The experiment in a line: PDSP Secondary Binding target: HTR1E - Compounds are tested at 10 uM concentration, plate are incubated at room temperature in the dark for 90 minutes. Reaction are stopped by vacuum filtration onto 0.3% polyethyleneimine soaked filter mats using Filtermate harvester. Scintillation cocktail is then melted onto microwave-dried filters on a hot plate and the radio activity is counted in Microbia counter.

Assay [10] deals with 5-hydroxytryptamine receptor 1B (Homo sapiens, UniProt P28222). The experiment in a line: PDSP Secondary Binding target: HTR1B - Compounds are tested at 10 uM concentration, plate are incubated at room temperature in the dark for 90 minutes. Reaction are stopped by vacuum filtration onto 0.3% polyethyleneimine soaked filter mats using Filtermate harvester. Scintillation cocktail is then melted onto microwave-dried filters on a hot plate and the radio activity is counted in Microbia counter.
Sequence of 5-hydroxytryptamine receptor 1B (P28222 whole entry): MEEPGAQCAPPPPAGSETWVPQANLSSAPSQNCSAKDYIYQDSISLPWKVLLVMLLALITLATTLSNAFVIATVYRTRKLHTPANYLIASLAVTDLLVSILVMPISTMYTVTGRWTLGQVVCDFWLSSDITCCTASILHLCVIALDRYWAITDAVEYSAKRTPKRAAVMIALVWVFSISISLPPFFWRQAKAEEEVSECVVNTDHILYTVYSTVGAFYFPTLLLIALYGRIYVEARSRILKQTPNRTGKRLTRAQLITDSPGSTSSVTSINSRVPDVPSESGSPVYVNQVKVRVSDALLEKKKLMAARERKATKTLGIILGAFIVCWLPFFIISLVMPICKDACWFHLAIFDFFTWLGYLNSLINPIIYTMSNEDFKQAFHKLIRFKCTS

The target of assay [11] is Sodium-dependent noradrenaline transporter (Homo sapiens, UniProt P23975). The experiment in a line: PDSP Secondary Binding target: SLC6A2 - Compounds are tested at 10 uM concentration, plate are incubated at room temperature in the dark for 90 minutes. Reaction are stopped by vacuum filtration onto 0.3% polyethyleneimine soaked filter mats using Filtermate harvester. Scintillation cocktail is then melted onto microwave-dried filters on a hot plate and the radio activity is counted in Microbia counter.
Sequence of Sodium-dependent noradrenaline transporter (P23975 whole entry): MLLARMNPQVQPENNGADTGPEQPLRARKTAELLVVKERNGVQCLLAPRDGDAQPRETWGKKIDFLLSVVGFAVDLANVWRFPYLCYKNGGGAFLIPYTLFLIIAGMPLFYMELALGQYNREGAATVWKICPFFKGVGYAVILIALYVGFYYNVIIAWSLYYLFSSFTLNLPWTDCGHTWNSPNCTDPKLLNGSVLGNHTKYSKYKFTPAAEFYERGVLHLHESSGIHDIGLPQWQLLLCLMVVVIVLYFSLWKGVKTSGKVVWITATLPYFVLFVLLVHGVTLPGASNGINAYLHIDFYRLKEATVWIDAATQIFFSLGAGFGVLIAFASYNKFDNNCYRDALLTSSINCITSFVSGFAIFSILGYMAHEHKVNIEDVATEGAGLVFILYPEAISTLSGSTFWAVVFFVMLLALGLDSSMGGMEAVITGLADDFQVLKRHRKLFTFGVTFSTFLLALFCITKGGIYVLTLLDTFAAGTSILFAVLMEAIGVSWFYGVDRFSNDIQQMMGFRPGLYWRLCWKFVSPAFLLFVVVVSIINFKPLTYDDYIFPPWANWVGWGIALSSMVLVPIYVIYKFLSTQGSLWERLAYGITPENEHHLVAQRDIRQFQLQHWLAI

Assay [12] concerns the target D(2) dopamine receptor (Homo sapiens, UniProt P14416). The experiment in a line: PDSP Secondary Binding target: DRD2 - Compounds are tested at 10 uM concentration, plate are incubated at room temperature in the dark for 90 minutes. Reaction are stopped by vacuum filtration onto 0.3% polyethyleneimine soaked filter mats using Filtermate harvester. Scintillation cocktail is then melted onto microwave-dried filters on a hot plate and the radio activity is counted in Microbia counter.

Assay [13] deals with T1, Alpha-2A adrenergic receptor (Homo sapiens, UniProt P08913).
T1 sequence (P08913 whole entry): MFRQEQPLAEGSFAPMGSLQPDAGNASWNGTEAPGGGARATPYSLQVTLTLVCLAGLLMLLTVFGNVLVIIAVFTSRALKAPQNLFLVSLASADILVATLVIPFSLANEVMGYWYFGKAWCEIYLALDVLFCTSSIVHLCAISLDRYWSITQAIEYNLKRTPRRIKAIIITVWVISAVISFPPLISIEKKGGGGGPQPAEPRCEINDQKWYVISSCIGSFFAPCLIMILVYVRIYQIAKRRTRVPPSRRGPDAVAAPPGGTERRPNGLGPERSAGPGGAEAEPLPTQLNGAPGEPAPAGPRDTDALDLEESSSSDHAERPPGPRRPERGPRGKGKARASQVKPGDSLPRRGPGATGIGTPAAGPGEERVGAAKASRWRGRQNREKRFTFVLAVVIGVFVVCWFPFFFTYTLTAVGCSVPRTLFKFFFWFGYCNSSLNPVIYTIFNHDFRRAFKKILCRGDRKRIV
The assay can be described thus: PDSP Secondary Binding target: ADRA2A - Compounds are tested at 10 uM concentration, plate are incubated at room temperature in the dark for 90 minutes. Reaction are stopped by vacuum filtration onto 0.3% polyethyleneimine soaked filter mats using Filtermate harvester. Scintillation cocktail is then melted onto microwave-dried filters on a hot plate and the radio activity is counted in Microbia counter.

Assay [14] addresses 5-hydroxytryptamine receptor 6 (Homo sapiens, UniProt P50406). The experiment in a line: PDSP Secondary Binding target: HTR6 - Compounds are tested at 10 uM concentration, plate are incubated at room temperature in the dark for 90 minutes. Reaction are stopped by vacuum filtration onto 0.3% polyethyleneimine soaked filter mats using Filtermate harvester. Scintillation cocktail is then melted onto microwave-dried filters on a hot plate and the radio activity is counted in Microbia counter.

In assay [15] the target is 5-hydroxytryptamine receptor 7 (Homo sapiens, UniProt P34969). The assay can be described thus: PDSP Secondary Binding target: HTR7 - Compounds are tested at 10 uM concentration, plate are incubated at room temperature in the dark for 90 minutes. Reaction are stopped by vacuum filtration onto 0.3% polyethyleneimine soaked filter mats using Filtermate harvester. Scintillation cocktail is then melted onto microwave-dried filters on a hot plate and the radio activity is counted in Microbia counter.

Assay [16] concerns the target Sigma non-opioid intracellular receptor 1 (Homo sapiens, UniProt Q99720). The experiment in a line: PDSP Secondary Binding target: SIGMAR1 - Compounds are tested at 10 uM concentration, plate are incubated at room temperature in the dark for 90 minutes. Reaction are stopped by vacuum filtration onto 0.3% polyethyleneimine soaked filter mats using Filtermate harvester. Scintillation cocktail is then melted onto microwave-dried filters on a hot plate and the radio activity is counted in Microbia counter.

The target of assay [17] is T2, 5-hydroxytryptamine receptor 2C (Homo sapiens, UniProt P28335).
T2 sequence (P28335 whole entry): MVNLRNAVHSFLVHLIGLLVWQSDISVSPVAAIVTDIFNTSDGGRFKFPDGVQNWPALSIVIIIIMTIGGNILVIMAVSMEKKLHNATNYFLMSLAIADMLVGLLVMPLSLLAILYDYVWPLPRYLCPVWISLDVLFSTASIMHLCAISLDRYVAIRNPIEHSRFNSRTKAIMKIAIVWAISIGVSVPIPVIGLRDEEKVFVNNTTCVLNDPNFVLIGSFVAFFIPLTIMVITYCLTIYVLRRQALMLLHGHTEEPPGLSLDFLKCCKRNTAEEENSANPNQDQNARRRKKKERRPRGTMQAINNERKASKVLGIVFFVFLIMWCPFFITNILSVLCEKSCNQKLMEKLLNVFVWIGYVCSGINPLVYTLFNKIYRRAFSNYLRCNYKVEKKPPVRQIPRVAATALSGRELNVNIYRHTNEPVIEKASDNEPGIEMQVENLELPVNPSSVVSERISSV
The experiment in a line: PDSP Secondary Binding target: HTR2C - Compounds are tested at 10 uM concentration, plate are incubated at room temperature in the dark for 90 minutes. Reaction are stopped by vacuum filtration onto 0.3% polyethyleneimine soaked filter mats using Filtermate harvester. Scintillation cocktail is then melted onto microwave-dried filters on a hot plate and the radio activity is counted in Microbia counter.

Assay [18] deals with Sodium-dependent serotonin transporter (Homo sapiens, UniProt P31645). The assay can be described thus: PDSP Secondary Binding target: SLC6A4 - Compounds are tested at 10 uM concentration, plate are incubated at room temperature in the dark for 90 minutes. Reaction are stopped by vacuum filtration onto 0.3% polyethyleneimine soaked filter mats using Filtermate harvester. Scintillation cocktail is then melted onto microwave-dried filters on a hot plate and the radio activity is counted in Microbia counter.

For assay [19], the target named is T3, D(4) dopamine receptor (Homo sapiens, UniProt P21917).
T3 sequence (P21917 whole entry): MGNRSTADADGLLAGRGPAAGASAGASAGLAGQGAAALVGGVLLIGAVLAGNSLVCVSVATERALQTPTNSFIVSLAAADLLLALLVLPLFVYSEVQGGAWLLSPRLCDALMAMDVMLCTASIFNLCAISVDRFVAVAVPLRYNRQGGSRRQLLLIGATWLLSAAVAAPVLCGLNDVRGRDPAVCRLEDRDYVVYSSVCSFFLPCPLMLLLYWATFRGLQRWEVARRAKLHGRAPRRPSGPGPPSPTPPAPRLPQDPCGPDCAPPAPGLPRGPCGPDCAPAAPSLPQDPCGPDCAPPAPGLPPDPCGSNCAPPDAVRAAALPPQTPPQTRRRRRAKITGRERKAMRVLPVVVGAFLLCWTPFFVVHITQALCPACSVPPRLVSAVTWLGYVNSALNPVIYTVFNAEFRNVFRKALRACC
The assay can be described thus: PDSP Secondary Binding target: DRD4 - Compounds are tested at 10 uM concentration, plate are incubated at room temperature in the dark for 90 minutes. Reaction are stopped by vacuum filtration onto 0.3% polyethyleneimine soaked filter mats using Filtermate harvester. Scintillation cocktail is then melted onto microwave-dried filters on a hot plate and the radio activity is counted in Microbia counter.

The target in assay [20] is 5-hydroxytryptamine receptor 2A (Homo sapiens, UniProt P28223). The assay can be described thus: PDSP Secondary Binding target: HTR2A - Compounds are tested at 10 uM concentration, plate are incubated at room temperature in the dark for 90 minutes. Reaction are stopped by vacuum filtration onto 0.3% polyethyleneimine soaked filter mats using Filtermate harvester. Scintillation cocktail is then melted onto microwave-dried filters on a hot plate and the radio activity is counted in Microbia counter.

Sequence of 5-hydroxytryptamine receptor 1D (P28221 whole entry): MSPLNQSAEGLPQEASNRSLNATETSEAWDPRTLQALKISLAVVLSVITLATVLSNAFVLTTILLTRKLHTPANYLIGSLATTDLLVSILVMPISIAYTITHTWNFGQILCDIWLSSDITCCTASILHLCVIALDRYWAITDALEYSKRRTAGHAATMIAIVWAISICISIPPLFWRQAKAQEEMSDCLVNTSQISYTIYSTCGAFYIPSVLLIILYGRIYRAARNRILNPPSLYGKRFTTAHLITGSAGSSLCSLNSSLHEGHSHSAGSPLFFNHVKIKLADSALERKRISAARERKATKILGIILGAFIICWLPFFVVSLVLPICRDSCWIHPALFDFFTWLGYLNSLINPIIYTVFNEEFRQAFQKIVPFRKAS
Sequence of 5-hydroxytryptamine receptor 6 (P50406 whole entry): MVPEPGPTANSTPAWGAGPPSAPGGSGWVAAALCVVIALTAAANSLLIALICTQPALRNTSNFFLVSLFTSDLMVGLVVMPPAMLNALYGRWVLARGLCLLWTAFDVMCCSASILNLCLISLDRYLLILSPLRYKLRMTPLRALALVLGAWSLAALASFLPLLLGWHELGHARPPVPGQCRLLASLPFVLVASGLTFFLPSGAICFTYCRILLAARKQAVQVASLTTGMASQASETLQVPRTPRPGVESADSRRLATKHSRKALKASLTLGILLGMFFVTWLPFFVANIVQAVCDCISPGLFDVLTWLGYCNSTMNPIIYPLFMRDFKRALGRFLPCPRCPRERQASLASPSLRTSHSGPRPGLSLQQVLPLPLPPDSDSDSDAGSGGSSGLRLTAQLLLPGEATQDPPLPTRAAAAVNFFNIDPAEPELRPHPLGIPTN
Sequence of 5-hydroxytryptamine receptor 1E (P28566 whole entry): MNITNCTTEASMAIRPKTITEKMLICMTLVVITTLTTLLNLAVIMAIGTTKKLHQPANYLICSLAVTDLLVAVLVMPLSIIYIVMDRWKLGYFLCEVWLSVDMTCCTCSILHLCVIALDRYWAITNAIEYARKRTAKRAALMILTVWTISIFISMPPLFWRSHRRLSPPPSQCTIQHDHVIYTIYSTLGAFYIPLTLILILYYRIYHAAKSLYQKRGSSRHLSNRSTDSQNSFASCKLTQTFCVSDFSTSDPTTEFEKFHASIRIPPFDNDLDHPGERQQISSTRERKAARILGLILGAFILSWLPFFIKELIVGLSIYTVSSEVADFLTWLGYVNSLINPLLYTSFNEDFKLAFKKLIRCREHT
Sequence of D(3) dopamine receptor (P35462 whole entry): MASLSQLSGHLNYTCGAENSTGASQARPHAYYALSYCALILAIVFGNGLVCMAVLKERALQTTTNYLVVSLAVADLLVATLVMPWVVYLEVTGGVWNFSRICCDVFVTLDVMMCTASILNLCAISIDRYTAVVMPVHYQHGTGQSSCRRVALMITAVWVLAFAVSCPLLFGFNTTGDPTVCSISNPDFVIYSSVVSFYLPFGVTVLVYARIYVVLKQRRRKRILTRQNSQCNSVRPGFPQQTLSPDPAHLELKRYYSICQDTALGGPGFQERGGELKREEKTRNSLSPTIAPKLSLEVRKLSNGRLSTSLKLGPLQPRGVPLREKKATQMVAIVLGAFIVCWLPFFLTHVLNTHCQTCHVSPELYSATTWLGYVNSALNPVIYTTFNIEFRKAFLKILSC
Sequence of D(2) dopamine receptor (P14416 whole entry): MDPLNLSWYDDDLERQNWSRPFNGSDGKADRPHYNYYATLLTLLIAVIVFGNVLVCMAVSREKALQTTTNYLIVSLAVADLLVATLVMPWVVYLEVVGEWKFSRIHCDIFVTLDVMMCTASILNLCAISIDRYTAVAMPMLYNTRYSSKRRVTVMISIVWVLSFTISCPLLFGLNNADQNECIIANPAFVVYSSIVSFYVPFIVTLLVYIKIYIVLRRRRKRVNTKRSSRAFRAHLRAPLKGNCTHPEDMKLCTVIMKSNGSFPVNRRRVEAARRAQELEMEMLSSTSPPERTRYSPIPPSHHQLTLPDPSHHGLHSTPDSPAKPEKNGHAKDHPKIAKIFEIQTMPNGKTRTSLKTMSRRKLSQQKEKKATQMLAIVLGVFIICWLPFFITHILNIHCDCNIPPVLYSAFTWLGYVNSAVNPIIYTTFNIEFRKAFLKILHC

For the compound `CN(C)S(=O)(=O)c1ccc(NC(=S)N2CCC(C(O)(c3ccccc3)c3ccccc3)CC2)cc1`, the Ki was 3500 nM in assay [1], 969 nM in [2], 5210 nM in assay [3] and 242 nM in assay [4].
As for `CS(=O)(=O)NC[C@H]1CC[C@H](Nc2nc3c(s2)CCSc2ccccc2-3)CC1`, the Ki was 498 nM in assay [5]; 400 nM in assay [6]; 1610 nM in assay [7]; 1040 nM in assay [8]; 7540 nM in [3]; 1720 nM in assay [4].
Turning to `NCCc1c[nH]c2ccc(C(N)=O)cc12`, the Ki in assay [9] is 949 nM; in [10] it was 11.2 nM; in [8], 8.64 nM; in assay [11], 2650 nM; in assay [12], above 10000 nM; in assay [4], 4570 nM. In addition, the Ki was determined as 2160 nM in [13] and 325 nM in assay [14].
As to `N#Cc1c[nH]c2c(C(=O)N3CCN(CCc4ccc(F)cc4)CC3)cccc12` [PRUVANSERIN], the Ki in assay [15] worked out at 2390 nM; in assay [6], 1040 nM; in assay [16], 178 nM; in assay [7], 588 nM; in [17], 1470 nM; in assay [11] it was 2520 nM. For the same compound, the inhibition constant Ki in assay [3] is above 10000 nM; in assay [4], 1180 nM; in [18] it was 1100 nM; in [19], 181 nM; in [20], 2.64 nM.

The Ki is the equilibrium dissociation constant of an inhibitor or competing ligand from its target. Low readings indicate higher affinity, high ones lower affinity.
